These results are taken from paper PMC7761982, “FDA-Approved Drugs with Potent In Vitro Antiviral Activity against Severe Acute Respiratory Syndrome Coronavirus 2” (Pharmaceuticals, 2020).

Like-named read-outs stand apart in the source and are kept apart here. Some results are limits rather than exact numbers.

In data set [1] the test system is NRC-03-nhCoV. The data set can be described thus: microbe, parasite or virus in culture. The data set is classed as cell-based, SARS-CoV-2.
Data set [2] deals with NRC-03-nhCoV. As to the kind of experiment: Viral adsorption mechanism, plaque infectivity reduction assay. It is filed as cell-based, SARS-CoV-2. As for the experimental part:
The viral adsorption mechanism was assayed according to a protocol by Zhang and his colleagues with minor modifications. Vero-E6 cells were cultivated in a 6-well plate (10^5 cells/mL) for 24 h at 37 °C. Each tested drug was applied in 200 µL medium without supplements and co-incubated with the cells for 2 h at 4 °C. The inocula containing the non-absorbed drug were removed by washing cells three successive times with supplement-free medium. SARS-CoV-2 virus diluted to 104 PFU/well was co-incubated with the pretreated cells for 1 h, and then 3 mL DMEM supplemented with 2% agarose were added. Plates were left to solidify and then incubated at 37 °C to allow the formation of viral plaques. The plaques were fixed and stained as described above to calculate the percentage reduction in plaque formation compared to control wells, which comprised untreated Vero-E6 cells directly infected with NRC-03-nhCoV.

Data set [3] concerns NRC-03-nhCoV. As to the kind of experiment: Viral replication mechanism, plaque infectivity reduction assay. It is filed as cell-based, SARS-CoV-2. As for the experimental part:
The impact of tested drug on viral replication was determined as previously described. Vero-E6 cells were cultivated in a 6-well plate (10^5 cell/mL) for 24 h at 37 °C. Virus was inoculated directly to the cells and incubated for 1 h at 37 °C. The inocula containing the non-adsorbed viral particles were removed by washing cells three successive times with supplement-free medium. The test compound was added in varying concentrations to infected cells for another 1 h contact time. After removing the inocula containing the tested drug, 3 mL of DMEM supplemented with 2% agarose were added to the cell monolayer. Plates were left to solidify and incubated at 37 °C until the appearance of viral plaques. Cell monolayers were fixed in 10% formalin solution for 1 h and stained with crystal violet. Control wells contained Vero-E6 cells incubated with the virus. Plaques were counted and the percentage reduction in plaque formation was compared to the control wells.

Data set [4] has as its system NRC-03-nhCoV. As to the kind of experiment: Virucidal mechanism, plaque infectivity reduction assay. Conditions: for virucidal effect: concentration not given. It is filed as cell-based, SARS-CoV-2. As for the experimental part:
The virucidal mechanism was assayed following a previously described protocol. In a 6-well plate, Vero-E6 cells were cultivated (10^5 cells/mL) for 24 h at 37 °C and 200 µL of serum-free DMEM containing SARS-CoV-2 was added to each sample with promising inhibition. After 1 h incubation, the mixture was diluted 10-fold three times using serum-free medium, which still allowed viral particles to grow on Vero-E6 cells. Next, 100 µL of each dilution were added to the Vero-E6 cell monolayer. After 1 h contact time, a DMEM overlayer was added to the cell monolayer. Plates were left to solidify and incubated at 37 °C to allow the formation of viral plaques. The plaques were fixed and stained as described above to calculate the percentage reduction in plaque formation. This value was compared to control wells comprising cells infected with virus and not pretreated with the tested material.

Data set [5] relates to SARS-CoV-2. The data set can be described thus: Plaque reduction assay, anti-SARS-CoV-2 activity. It is filed as cell-based. To be noted: read-out: viral inhibition, SARS-CoV-2.
A further data set deals with MERS-CoV. As to the kind of experiment: microbe, parasite or virus in culture. The data set is classed as cell-based. To be noted: for antiviral effect on MERS-CoV compared with SARS-CoV-2: equal concentrations of drug, plaque reduction assay.
Data set [6] concerns SARS-CoV-2. Conditions: read-out: IC50 against SARS-CoV-2 (reported); cited from earlier work.
The next data set can be described thus: in vitro. To be noted: African green monkey, CC50 (Vero-E6), half maximal cytotoxic concentration, MTT assay, Vero-E6 cells.
The mark [7] stands for this setting: Severe acute respiratory syndrome coronavirus 2, Vero C1008, 72 h, Vero-E6 cells, 72 h, crystal violet, reduction of virus-induced CPE by 50%, read-out: IC50 (NRC-03-nhCoV).
Setting [8] is: Severe acute respiratory syndrome coronavirus 2, Vero C1008, negative log of the IC50 value against SARS-CoV-2, read-out: pIC50 (converted).
Where [9] appears, read: Middle East respiratory syndrome-related coronavirus, read-out: viral inhibition, MERS-CoV.
[10] abbreviates: Severe acute respiratory syndrome coronavirus 2, read-out: Viral Adsorption, percent inhibition.
Setting [11] is: Severe acute respiratory syndrome coronavirus 2, read-out: Viral Replication, percent inhibition.
Where [12] appears, read: Severe acute respiratory syndrome coronavirus 2, read-out: Virucidal, percent inhibition.

For `CC[C@H]1OC(=O)[C@H](C)[C@@H](O[C@H]2C[C@@](C)(OC)[C@@H](O)[C@H](C)O2)[C@H](C)[C@@H](O[C@@H]2O[C@H](C)C[C@H](N(C)C)[C@H]2O)[C@](C)(O)C[C@@H](C)CN(C)[C@H](C)[C@@H](O)[C@]1(C)O` [Azithromycin], the IC50 in the data set on NRC-03-nhCoV [1] (setting [7]) was 0.32 µM; in the data set on NRC-03-nhCoV [1] (setting [8]), 0.324 µM; with SARS-CoV-2 [6], 2.12 µM. The inhibition at 0.16 µM in the data set with NRC-03-nhCoV [2] (Severe acute respiratory syndrome coronavirus 2, 0.16 µM, read-out: Viral Adsorption, percent inhibition) came out at 0%; in the data set with NRC-03-nhCoV [3] (Severe acute respiratory syndrome coronavirus 2, 0.16 µM, read-out: Viral Replication, percent inhibition), 0%; in the data set with NRC-03-nhCoV [4] (Severe acute respiratory syndrome coronavirus 2, 0.16 µM, read-out: Virucidal, percent inhibition) it was 12%. The inhibition at 0.322 µM in the data set on NRC-03-nhCoV [2] (Severe acute respiratory syndrome coronavirus 2, 0.322 µM, read-out: Viral Adsorption, percent inhibition) was found to be 2%; in the data set on NRC-03-nhCoV [3] (Severe acute respiratory syndrome coronavirus 2, 0.322 µM, read-out: Viral Replication, percent inhibition), 0%; in the data set with NRC-03-nhCoV [4] (Severe acute respiratory syndrome coronavirus 2, 0.322 µM, read-out: Virucidal, percent inhibition), 34%. For the same molecule, the inhibition at 0.64 µM in the data set with NRC-03-nhCoV [2] (Severe acute respiratory syndrome coronavirus 2, 0.64 µM, read-out: Viral Adsorption, percent inhibition) is 27%; with NRC-03-nhCoV [3] (Severe acute respiratory syndrome coronavirus 2, 0.64 µM, read-out: Viral Replication, percent inhibition), 2%; in the data set on NRC-03-nhCoV [4] (Severe acute respiratory syndrome coronavirus 2, 0.64 µM, read-out: Virucidal, percent inhibition) it was 51%. In addition, the inhibition at 1.3 µM in the data set on NRC-03-nhCoV [2] (Severe acute respiratory syndrome coronavirus 2, 1.3 µM, read-out: Viral Adsorption, percent inhibition) was ≤ 31%; with NRC-03-nhCoV [3] (Severe acute respiratory syndrome coronavirus 2, 1.3 µM, read-out: Viral Replication, percent inhibition) it was 4%; in the data set on NRC-03-nhCoV [4] (Severe acute respiratory syndrome coronavirus 2, 1.3 µM, read-out: Virucidal, percent inhibition), 51%. In the data set with NRC-03-nhCoV [3] (concentration not given), the “inhibitory effect on virus replication” value is on record as “negligible effect on viral replication”. For the same molecule, the virucidal effect entry in the data set with NRC-03-nhCoV [4] is reported as “up to 51%”. For the same molecule, the inhibition at 5 µM was ~80% with SARS-CoV-2 [5] (Severe acute respiratory syndrome coronavirus 2, 5 µM (lowest concentration tested)) and ~20% in the data set with MERS-CoV (setting [9]). Besides, the inhibition at 10 µM was ~90% in the data set on SARS-CoV-2 [5] (Severe acute respiratory syndrome coronavirus 2, 10 µM (highest concentration tested)) and ~30% in the data set on MERS-CoV (setting [9]). The same molecule registered a CC50 in the data set “in vitro” of 793 µM.

Take `O=C(Nc1ccc([N+](=O)[O-])cc1Cl)c1cc(Cl)ccc1O` [Niclosamide]: the IC50 was 0.16 µM in the data set on NRC-03-nhCoV [1] (setting [7]) and 0.162 µM in the data set with NRC-03-nhCoV [1] (setting [8]). The inhibition at 1.302 µM came out at 0% in the data set on NRC-03-nhCoV [2] (setting [10]), 23% in the data set with NRC-03-nhCoV [3] (setting [11]) and 16% with NRC-03-nhCoV [4] (setting [12]). Further, the inhibition at 2.6 µM in the data set with NRC-03-nhCoV [2] (setting [10]) was 0%; in the data set with NRC-03-nhCoV [3] (setting [11]) it was 55%; with NRC-03-nhCoV [4] (setting [12]), 21%. In addition, the inhibition at 5.2 µM in the data set on NRC-03-nhCoV [2] (setting [10]) stood at 0%; with NRC-03-nhCoV [3] (Severe acute respiratory syndrome coronavirus 2, 5.2 µM, read-out: Viral Replication, percent inhibition) it was 68%; in the data set with NRC-03-nhCoV [4] (setting [12]) it was 21%. Also, the inhibition at 10.4 µM in the data set with NRC-03-nhCoV [2] (setting [10]) amounted to 0%; in the data set on NRC-03-nhCoV [3] (Severe acute respiratory syndrome coronavirus 2, 10.4 µM, read-out: Viral Replication, percent inhibition), 70%; with NRC-03-nhCoV [4] (setting [12]), 37%. Moreover, the “inhibition during the viral adsorption stage” value in the data set on NRC-03-nhCoV [2] (concentration not given) was “negligible reduction in viral inhibition”. In addition, in the data set on NRC-03-nhCoV [4], the virucidal effect is 37%. Also, in the data set with MERS-CoV, the “antiviral effect on MERS-CoV compared with SARS-CoV-2” value is “equally effective against SARS-CoV-2 and MERS-CoV”. In “in vitro”, this molecule returned a 50% cytotoxic concentration (CC50) of 205 µM.

As for `CC(=O)Oc1ccccc1C(=O)Nc1ncc([N+](=O)[O-])s1` [Nitazoxanide], the IC50 in the data set on NRC-03-nhCoV [1] (setting [7]) and in the data set on NRC-03-nhCoV [1] (setting [8]) was 1.29 µM in each case. The values for the inhibition at 1.302 µM in the data set on NRC-03-nhCoV [2] (setting [10]), in the data set with NRC-03-nhCoV [3] (setting [11]) and in the data set with NRC-03-nhCoV [4] (setting [12]) were 0%, 35% and 39%, respectively. The inhibition at 2.6 µM is 1% with NRC-03-nhCoV [2] (setting [10]), 40% with NRC-03-nhCoV [3] (setting [11]) and 61% with NRC-03-nhCoV [4] (setting [12]). In addition, the inhibition at 5.2 µM in the data set on NRC-03-nhCoV [2] (setting [10]) was 11%; in the data set on NRC-03-nhCoV [4] (setting [12]), 75%. For the same molecule, the inhibition at 10.4 µM in the data set with NRC-03-nhCoV [2] (setting [10]) is 11%; with NRC-03-nhCoV [4] (setting [12]), 78%. For the same molecule, the “Viral Replication, percent inhibition” value in the data set on NRC-03-nhCoV [3] (5.2 µM) and with NRC-03-nhCoV [3] (10.4 µM) was “Toxic” each time. The “antiviral effect on MERS-CoV compared with SARS-CoV-2” value with MERS-CoV is “equally effective against SARS-CoV-2 and MERS-CoV”. Moreover, in “in vitro”, the CC50 was determined as 665 µM.
